From US5707833A, “Process of making cyclodextrin glucanotransferase with brevibacterium” (priority 1993, dated 1998)
Like-named read-outs stand apart in the source and are kept apart here.

Test system: cyclodextrin glucanotransferase (γ-CGTase, EC 2.4.1.19) of Brevibacterium sp. No. 9605
Format: biochemical
Protocol: (8) Activity measurement: In the measurements of the enzlanological properties described above, enzyme activity was measured by the following method. A 0.05 ml portion of an aqueous solution of the enzyme was added to 0.5 ml of a substrate solution (1.5% by weight soluble starch in 0.1M Atkins & Pantin buffer, pH 10.0) and incubated at 40° C. for 30 minutes. After adding 5 ml of 0.1N hydrochloric acid to terminate the reaction, a 0.5 ml portion of the reaction mixture was taken out and mixed with 5 ml of an iodine solution (0.005% iodine in 0.05% potassium iodide solution) to measure decrease in the absorbance at […]. One unit of the activity was defined as the amount of enzyme which decreases 1% of the absorbance at 660 nm within 1 minute under these conditions.

[1] = enzyme treated with 1 mM inhibitor at 40° C. for 10 minutes in 0.1M H3BO3·KCl-NaOH buffer (pH 8.0), control 100, activity on soluble starch, iodine method

Structure (SMILES) | Residual Activity (%) (pH 8) | Residual Activity (%) [1] [%]
O=C(O)CI [MIA, monoiodoacetic acid] | 82 | –
CCN1C(=O)C=CC1=O [NEM, N-ethylmaleimide] | – | 84
O=C(O)c1cc[c]([Hg][Cl])cc1 [PCMB, p-chloromercuribenzoic acid] | – | 83
